Results taken from PubChem BioAssay AID1278 (The Scripps Research Institute Molecular Screening Center, 2008).
Activity calls are given as the source filed them. The rule behind the calls is not given here.

Molecular target: Neuropeptide Y receptor type 2 (Homo sapiens) (UniProt P49146)
Test: NPY-Y2 antagonist potency, selectivity check, dose response, counter-screen for NPY-Y1 antagonist project, cell-based (AID 1278)
Settings: NPY-Y2 expressing cells, antagonism, cell-based HTS

Sequence of Neuropeptide Y receptor type 2 (Homo sapiens) (P49146 whole entry, looked up): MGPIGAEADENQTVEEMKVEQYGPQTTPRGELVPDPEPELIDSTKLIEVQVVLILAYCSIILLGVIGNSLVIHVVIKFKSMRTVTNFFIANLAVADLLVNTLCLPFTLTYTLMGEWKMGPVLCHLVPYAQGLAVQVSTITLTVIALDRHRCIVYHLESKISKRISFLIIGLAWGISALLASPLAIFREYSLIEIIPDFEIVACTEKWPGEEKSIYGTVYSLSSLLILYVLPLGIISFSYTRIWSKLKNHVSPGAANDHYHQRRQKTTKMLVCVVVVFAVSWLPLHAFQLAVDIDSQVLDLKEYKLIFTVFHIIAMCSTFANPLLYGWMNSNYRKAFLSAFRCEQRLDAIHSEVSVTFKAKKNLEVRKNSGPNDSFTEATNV

Compound: CCc1cc(-c2[nH]ncc2-c2ccc3c(c2)OCO3)c(O)cc1O
- IC50: < 35 µM (inactive)
